Measured values taken from patent US4820695A, “C-20-dihydro-deoxy-(cyclic amino)-derivatives of macrolide antibiotics” (priority 1987, dated 1989).
Converted amounts (≈) assume the structure as drawn. Where two headings read alike, the source gives them in different places.

Experiments:
[1] = test system: Escherichia coli TEM; test: MIC, standard agar-dilution assay (Table IX); format: cell-based
[2] = test system: Escherichia coli N10; test: MIC, standard agar-dilution assay (Table IX); format: cell-based
[3] = test system: Klebsiella X26; test: MIC, standard agar-dilution assay (Table IX); format: cell-based
[4] = test system: Streptococcus pyogenes C203; test: MIC, standard agar-dilution assay (Table IX); format: cell-based
[5] = test system: Staphylococcus aureus S13E; test: MIC, standard agar-dilution assay (Table IX); format: cell-based
[6] = test system: Staphylococcus epidermidis EPI1; test: MIC, standard agar-dilution assay (Table IX); format: cell-based; conditions: Staphylococcus epidermidis EPI1, agar-dilution
[7] = test system: Staphylococcus epidermidis 222; test: MIC, standard agar-dilution assay (Table IX); format: cell-based
[8] = test system: Streptococcus Group D 2041; test: MIC, standard agar-dilution assay (Table IX); format: cell-based
[9] = Titratable groups in 66% aqueous DMF (Tables XIV-XVI); format: physicochemical
From the text: ^c Run in 66% aqueous DMF
^d Run in 66% aqueous DMF

[10] = test system: Staphylococcus aureus X400; test: MIC, standard agar-dilution assay (Table IX); format: cell-based; conditions: Staphylococcus aureus X400, Methicillin-resistant strain
[11] = test system: Pasteurella multocida; test: Pasteurella infection in one-day-old chicks, medicated drinking water (Table XIII); format: in vivo; conditions: Administered in the available drinking water at 2 g/gal
Description: Many of the C-20 modified derivatives of this invention have also shown in vivo antibacterial activity against infections induced by gram-negative bacteria. Tables XII and XIII summarize the results of tests in which illustrative compounds were evaluated against a Pasteurella infection in one-day-old chicks. The compounds were administered parenterally or orally after challenge of the chicks with Pasteurella multocida (0.1 ml of a 10^-4 dilution of a twenty-hour tryptose broth culture of an avian P. multocida given subcutaneously). In these tests, unless indicated otherwise, all non-medicated infected chicks died within 24 hours of Pasteurella challenge. In the tests summarized in Table XII, the compounds were administered by subcutaneous injection at a dosage of 30 mg/kg, 1 and 4 hours post-challenge of the chicks with P. multocida. In the tests summarized in Table XIII the compounds were administered in medicated drinking water (at a level of 2 g/gal) available from 4 to 20 hours prior to challenge of the chicks with P. multocida and during the 3 -day test period.
^a Administered in the available drinking water at a concentration of […]

[12] = test system: Staphyloccus aureus X1.1; test: MIC, standard agar-dilution assay (Table IX); format: cell-based, Staphylococcus aureus
[13] = test system: Streptococcus pneumoniae Park I; test: MIC, standard agar-dilution assay (Table IX); format: cell-based; conditions: Streptococcus pneumoniae Park I, agar-dilution
[14] = test system: Streptococcus pyogenes C203; test: ED50 in mice experimentally infected with S. pyogenes C203 (Table XI); format: in vivo; conditions: Streptococcus pyogenes, doses given 1 and 4 hours postinfection, read-out: ED50
In short: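 Protective ED50 (mg/kg × 2) was determined as the dose sparing half the animals. Test compound was given twice, at 1 and 4 hours after experimental S. pyogenes C203 infection of mice.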

[15] = test system: Streptococcus Group D X66; test: MIC, standard agar-dilution assay (Table IX); format: cell-based
[16] = test system: Escherichia coli EC14; test: MIC, standard agar-dilution assay (Table IX); format: cell-based
[17] = test system: Haemophilus influenzae 76; test: MIC, standard agar-dilution assay (Table IX); format: cell-based; conditions: Haemophilus influenzae 76, Ampicillin-resistant strain
[18] = test system: Pasteurella multocida; test: Pasteurella infection in one-day-old chicks, subcutaneous administration (Table XII); format: in vivo; conditions: Administered subcutaneously, 30 mg/kg × 2, 1 and 4 hours post-challenge
In short: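 Treatment was 30 mg/kg s.c., given twice (1 and 4 h after infection). The infection itself was induced in day-old chicks by s.c. injection of 0.1 ml of avian Pasteurella multocida culture (20-h tryptose broth, diluted 10^-4).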

[19] = test system: Staphylococcus aureus V41; test: MIC, standard agar-dilution assay (Table IX); format: cell-based; conditions: Staphylococcus aureus V41, Penicillin-resistant strain
[20] = test system: Mycoplasma synoviae 40A; test: MIC, broth-dilution microtiter test (Table X); format: cell-based
From the text: (§1) The MIC's in Table X were obtained using conventional broth-dilution microtiter tests.

[21] = test system: Pasteurella hemolytica 22C; test: MIC, broth-dilution microtiter test (Table X); format: cell-based
From the text: as §1

[22] = test system: Streptococcus sp. 19F; test: MIC, broth-dilution microtiter test (Table X); format: cell-based
From the text: as §1

[23] = test system: Mycoplasma hyopneumoniae S5972; test: MIC, broth-dilution microtiter test (Table X); format: cell-based
From the text: as §1

[24] = test system: Mycoplasma hyorhinis 29E; test: MIC, broth-dilution microtiter test (Table X); format: cell-based
From the text: as §1

[25] = test system: Pasteurella multocida 17E; test: MIC, broth-dilution microtiter test (Table X); format: cell-based; conditions: Bovine isolate
From the text: as §1

[26] = test system: Staphylococcus aureus; test: MIC, broth-dilution microtiter test (Table X); format: cell-based
From the text: as §1

[27] = test system: Pasteurella multocida 60A; test: MIC, broth-dilution microtiter test (Table X); format: cell-based; conditions: Avian isolate
From the text: as §1

[28] = test system: Mycoplasma gallisepticum 29C; test: MIC, broth-dilution microtiter test (Table X); format: cell-based
From the text: as §1

[29] = test system: Haemophilus influenzae C.L.; test: MIC, standard agar-dilution assay (Table IX); format: cell-based; conditions: Ampicillin-sensitive strain

`CCC1OC(=O)CC(O)C(C)C(OC2OC(C)C(O)C(N(C)C)C2O)C(CCN2CCCC23CCCCC3)CC(C)C(=O)C=CC(C)=CC1COC1OC(C)C(O)C(OC)C1OC` (stereo not drawn) [Compound D19, 20-DH-DO-20-[1-Azaspiro[4.5]decan-1-yl]desmycosin] gave an MIC ([1]; read-out: MIC) of 32 µg/mL (≈ 35.7 µM), an MIC ([2]; read-out: MIC) of 128 µg/mL (≈ 143 µM) and an MIC ([3]; read-out: MIC) of 32 µg/mL (≈ 35.7 µM). For the same compound, the MIC ([4]; read-out: MIC) was 0.5 µg/mL (≈ 0.559 µM), the MIC ([5]; Staphylococcus aureus, S13E) was 1 µg/mL (≈ 1.12 µM) and the MIC ([6]; read-out: MIC) was 1 µg/mL (≈ 1.12 µM). For the same compound, the MIC ([7]; read-out: MIC) was 0.25 µg/mL (≈ 0.279 µM), the MIC ([8]; GROUPD2041, read-out: MIC) was 16 µg/mL (≈ 17.9 µM) and the pKa ([9]; Titratable groups) was 9.8. The pKa ([9]; Titratable groups (first value)) was 7.9, the MIC ([10]; read-out: MIC) was 1 µg/mL (≈ 1.12 µM) and the “Number of Deaths/Number Treated” value [11] was 3/10. It also gave an MIC ([12]; Staphylococcus aureus, read-out: MIC) of 1 µg/mL (≈ 1.12 µM), an MIC ([13]; read-out: MIC) of 0.25 µg/mL (≈ 0.279 µM) and an ED50 ([14]; C203, Oral) of 46 mg/kg. The ED50 ([14]; C203, sc, Subcutaneous) was 2.9 mg/kg, the MIC ([15]; read-out: MIC) was 16 µg/mL (≈ 17.9 µM) and the MIC ([16]; read-out: MIC) was 128 µg/mL (≈ 143 µM). The MIC ([17]; read-out: MIC) was 16 µg/mL (≈ 17.9 µM), the “Number of Deaths/Number Treated” value [18] was 0/10 and the MIC ([19]; read-out: MIC) was 1 µg/mL (≈ 1.12 µM). For the same compound, the MIC ([20]; Mycoplasmopsis synoviae, read-out: MIC) was 0.39 µg/mL (≈ 0.436 µM), the MIC ([21]; read-out: MIC) was 3.12 µg/mL (≈ 3.49 µM) and the MIC ([22]; read-out: MIC) was 3.12 µg/mL (≈ 3.49 µM). The MIC ([23]; Mesomycoplasma hyopneumoniae, read-out: MIC) was 3.12 µg/mL (≈ 3.49 µM), the MIC ([24]; read-out: MIC) was over 50 µg/mL and the MIC ([25]; read-out: MIC) was 3.12 µg/mL (≈ 3.49 µM). The MIC ([26]; read-out: MIC) was 0.78 µg/mL (≈ 0.871 µM), the MIC ([27]; read-out: MIC) was 3.12 µg/mL (≈ 3.49 µM) and the MIC ([28]; Mycoplasmoides gallisepticum, read-out: MIC) was 1.56 µg/mL (≈ 1.74 µM). It also gave an MIC ([29]; read-out: MIC) of 16 µg/mL (≈ 17.9 µM).

Compound `CCC1OC(=O)CC(O)C(C)C(OC2OC(C)C(O)C(N(C)C)C2O)C(CCN2CCC(C)CC(C)(C)C2)CC(C)C(=O)C=CC(C)=CC1COC1OC(C)C(O)C(OC)C1OC` (single isomer, unassigned) [Compound D23, 20-DH-DO-20-(3,3,5-Trimethylhexahydroazepin-1-yl)desmycosin] has an MIC [1] of 32 µg/mL (≈ 35.7 µM), an MIC [2] of 64 µg/mL (≈ 71.3 µM) and an MIC [3] of 128 µg/mL (≈ 143 µM). The MIC [4] was 0.5 µg/mL (≈ 0.557 µM), the MIC ([5]; Staphylococcus aureus S13E, agar-dilution) was 0.5 µg/mL (≈ 0.557 µM) and the MIC [6] was 0.5 µg/mL (≈ 0.557 µM). The MIC [7] was 0.5 µg/mL (≈ 0.557 µM), the MIC [8] was 8 µg/mL (≈ 8.92 µM) and the “Titratable groups” value [9] was 9.0. For the same compound, the “Titratable groups (first value)” value [9] was 7.7, the MIC [10] was 1 µg/mL (≈ 1.11 µM) and the “Number of Deaths/Number Treated” value [11] was 4/10. For the same compound, the MIC [12] was 0.5 µg/mL (≈ 0.557 µM), the MIC [13] was 0.5 µg/mL (≈ 0.557 µM) and the MIC [15] was 4 µg/mL (≈ 4.46 µM). The MIC [16] was 64 µg/mL (≈ 71.3 µM), the MIC [17] was 8 µg/mL (≈ 8.92 µM) and the “Number of Deaths/Number Treated” value [18] was 8/10. For the same compound, the MIC [19] was 0.5 µg/mL (≈ 0.557 µM), the MIC [20] was 0.097 µg/mL (≈ 0.108 µM) and the MIC [21] was 3.12 µg/mL (≈ 3.48 µM). The MIC [22] was 1.56 µg/mL (≈ 1.74 µM), the MIC [23] was 0.78 µg/mL (≈ 0.869 µM) and the MIC [24] was 6.25 µg/mL (≈ 6.97 µM). It also gave an MIC [25] of 6.25 µg/mL (≈ 6.97 µM), an MIC [26] of 3.12 µg/mL (≈ 3.48 µM) and an MIC [27] of 12.5 µg/mL (≈ 13.9 µM). It also gave an MIC [28] of 0.097 µg/mL (≈ 0.108 µM) and an MIC [29] of 16 µg/mL (≈ 17.8 µM).
